Experimental data from patent US20250018049A1, “COMPOUNDS FOR DEGRADING CYCLIN-DEPENDENT KINASE 2 VIA UBIQUITIN PROTEOSOME PATHWAY” (NIKANG THERAPEUTICS, INC., priority 2020, published 2025).

Key:
CDK2 [1] = biological target: T1, CDK2 (Homo sapiens, UniProt P24941); assay: NanoBRET CDK2 engagement assay; format: cell-based; parameters: expressed in transfected cells; conditions: OVCAR3 cells with stable CDK2-Luciferase vector, 24 hours treatment
Experimental: OVCAR3 cells with stable transfection of CDK2-Luciferase vector were seeded into 96-well plate at a density of 20,000 cells per well, 50 μL Opti-MEM medium supplemented with 1% FBS. Following morning, cells were treated with compounds of the disclosure, with starting concentration at 3 μM and ½ log dilution down to 0.3 nM for 24 hours at 37° C. DMSO treatment serves as control. Compound engagement was then measured using NanoBRE™ Kinase Kit from Promega (Part Number: CS1810C122, NanoBRET™ TE Kinase Kit #10, 1K) following manufacturer's instruction. For 24 hours treatment, tracer was added only for the last 2 hours. Briefly, 2.5 μL of complete 20× NanoBRET Tracer was added to the cells in suspension. Immediately prior to BRET measurements, prepare 3× Complete NanoBRET® Nano-Glo® Substrate in Opti-MEM without serum and phenol red. Without any delay, 25 μL per well of 3× Complete NanoBRET™ Nano-Glo® Substrate for a 96-well plate was added and mixed well. Signal was then read on a CLARIOstar® plate reader (measure donor emission (e.g., 450 nm) and acceptor emission (e.g., 610 nm or 630 nm) using a NanoBRET™-compatible luminometer. Target engagement was calculated with DMSO treatment as 100% signal, and IC50 was calculated by GraphPad Prism 9.

CDK2 [2] = biological target: T1, CDK2; assay: Phospho-Rb HTRF measurement in OVCAR3 cells (inhibition of CDK2); format: cell-based; parameters: High-Throughput Measurement of Cellular Endogenous CDK2; endogenous in cells; host or cells: OVCAR3; conditions: pRB(S807/811) assay, 24 h compound treatment
Experimental: Phosphorylation of RB protein at S780 and S807/811 were measured using HTRF phospho-RB cellular kits (Cat #64RBS780PEG and 64RBS807PEG) from Cisbio.
On Day 1, OVCAR3 or KYSE520 cells were seeded into 96-well tissue-culture treated plates at 20,000 cells/well in 200 μL and incubated overnight at 37° C. in CO2 atmosphere. On Day 2, the cells were treated with test compounds at concentrations from 0.3 to 10,000 nM using HP D300 digital dispenser. Twenty-four hours after compound treatment, cell culture media was removed by flicking the plate and tapping the plate against clean paper towel. Immediately 30 μL 1× lysis buffer was supplemented from the kit and the plate was incubated at room temperature on shaker for 30 min. After homogenization by pipetting up and down, 8 μL cell lysate from 96-well cell culture plate was transferred to 384-well small volume white detection plate. 2 μL premixed detection solution was added and the plate was covered with sealer. To prepare the detection solution, d2 conjugated-phospho-RB antibody and Eu-cryptate conjugated phosphor-RB antibody were diluted into detection buffer following manufacturer's instruction. Detection plates were incubated for 4 h at room temperature and read on ClarioStar (BMG Labtech) in TR-FRET mode (665 nM and 620 nM). The TR-FRET ratio (665 nM/620 nM) was plotted against the compound concentration and normalized to DMSO controls. Half maximal inhibition concentration (IC50) values are calculated with a four-parameter logistic fit using GraphPad Prism (version 8; La Jolla, CA).

SMILES	IC50 (CDK2 [1]) [µM]	IC50 (CDK2 [2]) [µM]
CO[C@H]1CN(S(=O)(=O)c2cccc(CN3CCN(c4cc5c(cc4F)C(=O)N(C4CCC(=O)NC4=O)C5=O)CC3)c2)CC[C@@H]1Nc1ncc2ccc(=O)n(C3CCCC3)c2n1 (stereo partly drawn) [Compound 64, 5-(4-(3-(((3S,4S)-4-((8-cyclopentyl-7-oxo-7,8-dihydropyrido[2,3-d]pyrimidin-2-yl)amino)-3-methoxypiperidin-1-yl)sulfonyl)benzyl)piperazin-1-yl)-2-(2,6-dioxopiperidin-3-yl)-6-fluoro-isoindoline-1,3-dione]	3.04	7.94
Cn1c(=O)n(C2CCC(=O)NC2=O)c2cccc(CCCOCCNS(=O)(=O)N3CCC(Nc4ncc5ccc(=O)n(C6CCCC6)c5n4)CC3)c21 (stereo not shown) [Compound 18, 4-((8-cyclopentyl-7-oxo-7,8-dihydropyrido[2,3-d]pyrimidin-2-yl)amino)-N-(2-(3-(1-(2,6-dioxopiperidin-3-yl)-3-methyl-2-oxo-2,3-dihydro-1H-benzo[d]imidazol-4-yl)propoxy)-ethyl)piperidine-1-sulfonamide]	0.188	0.7
N#Cc1cc2cnc(NC3CCN(S(=O)(=O)c4cccc(CN5CCN(c6cc7c(cc6F)C(=O)N(C6CCC(=O)NC6=O)C7=O)CC5)c4)CC3)nc2n(C2CCCC2)c1=O (stereo not shown) [Compound 46, 8-cyclopentyl-2-((1-((3-((4-(2-(2,6-dioxopiperidin-3-yl)-6-fluoro-1,3-dioxoisoindolin-5-yl)piperazin-1-yl)methyl)phenyl)sulfonyl)piperidin-4-yl)-amino)-7-oxo-7,8-dihydropyrido[2,3-d]-pyrimidine-6-carbonitrile]	2.16	2.92
CN(C[C@H]1CN(CCCc2cccc3c2n(C)c(=O)n3C2CCC(=O)NC2=O)CCO1)S(=O)(=O)N1CCC(Nc2ncc3ccc(=O)n(C4CCCC4)c3n2)CC1 (stereo partly drawn) [Compound 24, 4-((8-cyclopentyl-7-oxo-7,8-dihydropyrido[2,3-d]pyrimidin-2-yl)amino)-N-(((2R)-4-(3-(1-(2,6-dioxopiperidin-3-yl)-3-methyl-2-oxo-2,3-dihydro-1H-benzo[d]imidazol-4-yl)propyl)morpholin-2-yl)methyl)-N-methylpiperidine-1-sulfonamide]	0.169	0.194
Cn1c(=O)n(C2CCC(=O)NC2=O)c2cccc(C3CCN(C4CN(c5cccc(S(=O)(=O)N6CCC(Nc7ncc8ccc(=O)n(C9CCCC9)c8n7)CC6)c5)C4)CC3)c21 (stereo not shown) [Compound 72, 3-(4-(1-(1-(3-((4-((8-cyclopentyl-7-oxo-7,8-dihydropyrido[2,3-d]pyrimidin-2-yl)amino)-piperidin-1-yl)sulfonyl)phenyl)azetidin-3-yl)piperidin-4-yl)-3-methyl-2-oxo-2,3-dihydro-1H-benzo[d]imidazol-1-yl)piperidine-2,6-dione]	0.425	0.355
O=C(COc1cccc2c1C(=O)N(C1CCC(=O)NC1=O)C2=O)NCCOCCOCCN1CCN(S(=O)(=O)N2CCC(Nc3ncc4ccc(=O)n(C5CCCC5)c4n3)CC2)CC1 (stereo not shown) [compound 2, N-(2-(2-(2-(4-((4-((8-cyclopentyl-7-oxo-7,8-dihydropyrido[2,3-d]pyrimidin-2-yl)amino)-piperidin-1-yl)sulfonyl)piperazin-1-yl)-ethoxy)ethoxy)ethyl)-2-((2-(2,6-dioxo-piperidin-3-yl)-1,3-dioxoisoindolin-4-yl)-oxy)acetamide]	1.31	1.28
CC1(O)CCCC1n1c(=O)ccc2cnc(NC3CCN(S(=O)(=O)c4cccc(CN5CCN(c6cc7c(cc6F)C(=O)N(C6CCC(=O)NC6=O)C7=O)CC5)c4)CC3)nc21 (stereo not shown) [Compound 44, 2-(2,6-dioxopiperidin-3-yl)-5-fluoro-6-(4-(3-((4-((8-(2-hydroxy-2-methylcyclopentyl)-7-oxo-7,8-dihydropyrido[2,3-d]pyrimidin-2-yl)amino)-piperidin-1-yl)sulfonyl)benzyl)piperazin-1-yl)-isoindoline-1,3-dione]	–	0.405
Cn1nc(N2CCC(=O)NC2=O)c2ccc(C3CCN(Cc4cccc(S(=O)(=O)N5CCC(Nc6ncc7ccc(=O)n(C8CCCC8)c7n6)CC5)c4)CC3)cc21 [Compound 71, 1-(6-(1-(3-((4-((8-cyclopentyl-7-oxo-7,8-dihydropyrido[2,3-d]pyrimidin-2-yl)amino)-piperidin-1-yl)sulfonyl)-benzyl)piperidin-4-yl)-1-methyl-1H-indazol-3-yl)dihydropyrimidine-2,4(1H,3H)-dione]	0.167	0.0103
O=C1CCC(N2Cc3c(OCCN4CCC(Oc5cccc(S(=O)(=O)N6CCC(Nc7ncc8ccc(=O)n(C9CCCC9)c8n7)CC6)c5)CC4)cccc3C2=O)C(=O)N1 (stereo not shown) [Compound 29, 3-(4-(2-(4-(3-((4-((8-cyclopentyl-7-oxo-7,8-dihydropyrido[2,3-d]pyrimidin-2-yl)amino)-piperidin-1-yl)sulfonyl)phenoxy)piperidin-1-yl)ethoxy)-1-oxoisoindolin-2-yl)piperidine-2,6-dione]	0.426	0.216
O=C1CCC(N2C(=O)c3cccc(NCCOCCOCCOCCNCCCS(=O)(=O)N4CCC(Nc5ncc6ccc(=O)n(C7CCCC7)c6n5)CC4)c3C2=O)C(=O)N1 (stereo not shown) [Compound 25, 4-((15-((4-((8-cyclopentyl-7-oxo-7,8-dihydro-pyrido[2,3-d]pyrimidin-2-yl)amino)piperidin-1-yl)sulfonyl)-3,6,9-trioxa-12-azapentadecyl)-amino)-2-(2,6-dioxopiperidin-3-yl)isoindoline-1,3-dione]	–	1.07
O=C1CCC(N2C(=O)c3cc(F)c(N4CCN(Cc5cc(F)cc(S(=O)(=O)N6CCC(Nc7ncc8ccc(=O)n(C9CCCC9)c8n7)CC6)c5)CC4)cc3C2=O)C(=O)N1 (stereo not shown) [Compound 43, 5-(4-(3-((4-((8-cyclopentyl-7-oxo-7,8-dihydro-pyrido[2,3-d]pyrimidin-2-yl)amino)piperidin-1-yl)sulfonyl)-5-fluorobenzyl)piperazin-1-yl)-2-(2,6-dioxopiperidin-3-yl)-6-fluoroisoindoline-1,3-dione]	0.401	0.465
O=C1CCC(N2C(=O)c3cccc(NC(=O)COCCOCCOCCOCCNS(=O)(=O)N4CCC(Nc5ncc6ccc(=O)n(C7CCCC7)c6n5)CC4)c3C2=O)C(=O)N1 (stereo not shown) [Compound 26, 14-((4-((8-cyclopentyl-7-oxo-7,8-dihydro-pyrido[2,3-d]pyrimidin-2-yl)amino)piperidine)-1-sulfonamido)-N-(2-(2,6-dioxopiperidin-3-yl)-1,3-dioxoisoindolin-4-yl)-3,6,9,12-tetraoxatetradecan-amide]	–	6.09
O=C1CCC(N2C(=O)c3ccc(N4CC(Oc5cccc(S(=O)(=O)N6CCC(Nc7ncc8ccc(=O)n(C9CCCC9)c8n7)CC6)c5)C4)cc3C2=O)C(=O)N1 (stereo not shown) [Compound 12, 5-(3-(3-((4-((8-cyclopentyl-7-oxo-7,8-dihydro-pyrido[2,3-d]pyrimidin-2-yl)amino)piperidin-1-yl)sulfonyl)phenoxy)azetidin-1-yl)-2-(2,6-dioxopiperidin-3-yl)isoindoline-1,3-dione]	4.78	0.697
O=C1CCC(N2Cc3cc(N4CCC(Oc5cccc(S(=O)(=O)N6CCC(Nc7ncc8ccc(=O)n(C9CCCC9)c8n7)CC6)c5)CC4)ccc3C2=O)C(=O)N1 (stereo not shown) [Compound 33, 3-(5-(4-(3-((4-((8-cyclopentyl-7-oxo-7,8-dihydro-pyrido[2,3-d]pyrimidin-2-yl)amino)piperidin-1-yl)sulfonyl)phenoxy)piperidin-1-yl)-1-oxoiso-indolin-2-yl)piperidine-2,6-dione]	–	0.313
O=C1CCC(N2Cc3cc(N4CC(Oc5cccc(S(=O)(=O)N6CCC(Nc7ncc8ccc(=O)n(C9CCCC9)c8n7)CC6)c5)C4)ccc3C2=O)C(=O)N1 (stereo not shown) [Compound 74, 3-(5-(3-(3-((4-((8-cyclopentyl-7-oxo-7,8-dihydro-pyrido[2,3-d]pyrimidin-2-yl)amino)piperidin-1-yl)sulfonyl)phenoxy)azetidin-1-yl)-1-oxoisoindolin-2-yl)piperidine-2,6-dione]	–	0.1
